The source of these data is patent publication US12071430B2 (The Johns Hopkins University, priority 2011, dated 2024).

Structures are written as SMILES. ≈ marks a conversion by molar mass, not a printed value. Where only a bound is given, the exact number is not on record here.

Series [1] has as its system HUVEC. As to the kind of experiment: HUVEC proliferation, [3H]-thymidine incorporation assay. It is filed as cell-based, human. To be noted: HUVEC. On the procedure: (§1) The inhibitory effects of the new analogs on HUVEC proliferation were measured using a [3H]-thymidine incorporation assay. The log P values, used as an indicator of lipophilicity, were calculated using ALOGPS2.1 software. Aqueous solubility is a key physiochemical property relevant for oral absorption. We determined the solubility of each analog in 0.001 N HCl (pH=3), which represents the acidic human gastric fluid.
HUVEC Culture and Proliferation Assays. HUVEC (Lonza) were grown in EGM-2 bullet kit media (Lonza) and used at passage eight or lower. The H thymidine incorporation assays were conducted as previously described. Briefly, cells were seeded on 96-well plate at a concentration of 2000 cells/well and allowed to settle overnight. Drugs were added to each well in triplicate. After 24 hours, cells were treated with 1 μCi of [3H] thymidine for 6 h. Then cells were harvested and transferred to filtermats. The scintillation were counted and IC50 were determined using Prism software (version 6.0).

For series [2], the system named is HUVEC. Described as above. It is filed as cell-based. To be noted: Homo sapiens, mean ± SD, three independent experiments, read-out: HUVEC inhibition IC50.
Series [3] can be described thus: Aqueous solubility test in 0.001N HCl. It is filed as physicochemical. To be noted: 0.001 N HCl aqueous buffer, simulated gastric fluid, kinetic from dmso stock; thermodynamic solubility, HPLC, pH=3, room temperature, 24 h. On the procedure:
as §1
Aqueous solubility test. In a 1.5 mL microcentrifuge tube, 2 ul of 10 mM compound stock solution in DMSO was added to 1 mL 0.001N HCl aqueous buffer to obtain saturated solution. The resulting mixture was shaken under 600 rpm for 24 h at room temperature. Then the tube was centrifuged at 13,000 rpm for 5 min to remove the undissolved compound. 100 ul of the supernatant was injected to an Agilent 6120 LC/MS for analysis. The mass spectrometry data was collected under SIM/Scan mode. The ions of compound Exact Mass+1 and Exact Mass+23 were monitored as selected ion monitoring (SIM) for peak area integration. Solubility was calculated according to the concentration standard curve of each compound.

Another series deals with T1, CYP3A4 (Homo sapiens, UniProt P08684).
T1 construct: purchased ThermoFisher P2857; host or cells: baculosomes (insect-cell microsomes, own knowledge)
T1 sequence (P08684 whole entry): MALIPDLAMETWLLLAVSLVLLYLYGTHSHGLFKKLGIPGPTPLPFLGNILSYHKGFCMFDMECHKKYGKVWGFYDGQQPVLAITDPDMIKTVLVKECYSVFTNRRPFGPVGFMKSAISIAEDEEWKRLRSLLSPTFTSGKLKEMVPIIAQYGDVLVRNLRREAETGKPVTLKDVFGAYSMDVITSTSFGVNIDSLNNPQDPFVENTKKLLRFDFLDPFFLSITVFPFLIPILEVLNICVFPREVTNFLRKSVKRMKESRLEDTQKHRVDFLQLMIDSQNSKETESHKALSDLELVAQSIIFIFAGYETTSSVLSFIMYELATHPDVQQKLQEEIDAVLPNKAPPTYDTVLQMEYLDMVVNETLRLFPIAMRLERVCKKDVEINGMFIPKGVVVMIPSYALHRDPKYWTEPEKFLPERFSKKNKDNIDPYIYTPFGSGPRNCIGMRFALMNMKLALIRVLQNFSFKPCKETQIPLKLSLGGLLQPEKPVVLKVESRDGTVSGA
As to the kind of experiment: CYP3A4 enzyme assay (Vivid CYP3A4 Green Screening Kit). Particulars: dose-response, FIG. 2 / FIG. 6; read-out: IC50 for CYP3A4 inhibition. It is filed as in vitro ADME. On the procedure:
And CYP3A4 inhibition was initially determined using a cell-free fluorescence-based assay at a final concentration of 1 μM (Table 2).
CYP3A4 enzyme assay. CYP3A4 enzyme activity was tested using Vivid™ CYP3A4 Green Screening Kit (ThermoFisher, #P2857) using the manufacturer's protocol. Briefly, CYP3A4 baculosomes and drugs were incubated 10 min at 37° C. Then Vivid® Substrates were added and the fluorescence (ex/em:485/520) were read every 1 min for 60 minute.

The next series deals with HUVECs. Nature of the series: Filipin staining of intracellular cholesterol (NPC phenotype). It is filed as cell-based, human. To be noted: HUVEC, 0.2 μM, 24 h. An excerpt:
Nieman-Pick C phenotype and mTOR inhibition. […] We thus determined whether compound 48 shared the same mechanism with itraconazole. The intracellular cholesterol was detected using the cholesterol-binding fluorescent dye filipin. […] It is known that AMPK activation leads to mTOR inhibition.
Inhibition of NPC1. NPC1 plays an essential role in cholesterol export from the endolysosome. […] At a close view (FIG. 9B), the linear pyridinyl-piperizin-1-yl-phenyl core of compound 14 nestled into the hydrophobic channel created by the transmembrane helix. The isobutyl tail faced toward the open entrance of this channel. The tetrazole moiety pointed into the closed end of the pocket and interacted with the hydroxyl group of Tyr1225 via hydrogen bonding.
Filipin staining. 2000 HUVECs were plated in chamber slide with 1 ml media and allowed to settle overnight. […] The the cells were fixed with 4% paraformaldehyde for 15 min. After washed, cells were incubated with 500 ul 50 ug/ml filipin solution for 1 hour in the dark. Then the cells were washed twice with PBS, mounted and covered with coverslip. The images were taken using confocal microscope under 360/460 nm.

As to `CCC(C)n1ncn(-c2ccc(N3CCN(c4ccc(OC[C@@H]5CO[C@@](Cn6ccnc6)(c6ccc(Cl)cc6Cl)O5)cc4)CC3)c(F)c2)c1=O` (stereo partly drawn) [Compound 1, 4-(4-(4-(4-(((2S,4R)-2-((1H-imidazol-1-yl)methyl)-2-(2,4-dichlorophenyl)-1,3-dioxolan-4-yl)methoxy)phenyl)piperazin-1-yl)-3-fluorophenyl)-2-(sec-butyl)-2,4-dihydro-3H-1,2,4-triazol-3-one], the “HUVEC proliferation / anti-angiogenic potency compared to itraconazole, in words” value in the series with HUVEC [1] is “increased activities”. Besides, in the series with HUVEC [2], the IC50 (as a rule, the concentration that gives 50% inhibition) was determined as 0.0701 ± 0.0154 µM. For the same compound, the solubility – broadly, the dissolved amount per volume that the medium holds – at 24 h in series [3] is 17.2 µg/mL (≈ 23.7 µM).
Consider `CCC(C)n1ncn(-c2ccc(N3CCN(c4ccc(OC[C@@H]5CO[C@@](Cn6ccnc6)(c6ccc(Cl)cc6Cl)O5)cn4)CC3)cc2)c1=O` (stereo partly drawn) [Compound 4, 4-(4-(4-(5-(((2S,4R)-2-((1H-imidazol-1-yl)methyl)-2-(2,4-dichlorophenyl)-1,3-dioxolan-4-yl)methoxy)pyridin-2-yl)piperazin-1-yl)phenyl)-2-(sec-butyl)-2,4-dihydro-3H-1,2,4-triazol-3-one], for which the “HUVEC proliferation / anti-angiogenic potency compared to itraconazole, in words” value in the series on HUVEC [1] is reported as “increased activities”. For the same compound, the IC50 on CYP3A4 is 2.6 µM; in the series with HUVEC [2], 0.0691 ± 0.007 µM. The compound also displayed a solubility at 24 h in series [3] of 2.94 µg/mL (≈ 4.16 µM).
Consider `CCC(C)n1ncn(-c2ccc(N3CCN(c4ccc(OC[C@@H]5CO[C@@](Cn6ccnc6)(c6ccc(Cl)cc6Cl)O5)cn4)CC3)c(F)c2)c1=O` (stereo partly drawn) [Compound 5, 4-(4-(4-(5-(((2S,4R)-2-((1H-imidazol-1-yl)methyl)-2-(2,4-dichlorophenyl)-1,3-dioxolan-4-yl)methoxy)pyridin-2-yl)piperazin-1-yl)-3-fluorophenyl)-2-(sec-butyl)-2,4-dihydro-3H-1,2,4-triazol-3-one], for which the “HUVEC proliferation / anti-angiogenic potency compared to itraconazole, in words” value in the series on HUVEC [1] was “increased activities”. The 50% inhibitory concentration (IC50) in the series on HUVEC [2] turned out to be 0.068 ± 0.0155 µM. The compound further displayed a solubility at 24 h in series [3] of 125 µg/mL (≈ 173 µM).
Take `CCC(C)n1ncn(-c2ccc(N3CCN(c4ccc(OC[C@@H]5CO[C@@](Cn6ccnc6)(c6ccc(Cl)cc6Cl)O5)cc4)CC3)nc2)c1=O` (stereo partly drawn) [Compound 6, 4-(6-(4-(4-(((2S,4R)-2-((1H-imidazol-1-yl)methyl)-2-(2,4-dichlorophenyl)-1,3-dioxolan-4-yl)methoxy)phenyl)piperazin-1-yl)pyridin-3-yl)-2-(sec-butyl)-2,4-dihydro-3H-1,2,4-triazol-3-one]: the “HUVEC proliferation / anti-angiogenic potency compared to itraconazole, in words” value in the series on HUVEC [1] is “increased activities”. For the same compound, the IC50 in the series with HUVEC [2] stood at 0.0985 ± 0.0363 µM. This compound returned a solubility at 24 h in series [3] of 7.99 µg/mL (≈ 11.3 µM).
Take `CCC(C)n1ncn(-c2ccc(N3CCN(c4ccc(OC[C@@H]5CO[C@@](Cn6cnnn6)(c6ccc(Cl)cc6Cl)O5)cc4)CC3)c(F)c2)c1=O` (stereo partly drawn) [Compound 8, 4-(4-(4-(4-(((2S,4R)-2-((1H-tetrazol-1-yl)methyl)-2-(2,4-dichlorophenyl)-1,3-dioxolan-4-yl)methoxy)phenyl)piperazin-1-yl)-3-fluorophenyl)-2-(sec-butyl)-2,4-dihydro-3H-1,2,4-triazol-3-one]: the IC50 at CYP3A4 is over 100 µM; in the series on HUVEC [2], 0.153 ± 0.0327 µM. Moreover, the “induction of NPC phenotype (cholesterol accumulation)” value with HUVECs is “massive build-up of cholesterol”. Besides, the solubility at 24 h in series [3] was 0.0528 µg/mL (≈ 0.0729 µM).
In the same order, the values of `CCC(C)n1ncn(-c2ccc(N3CCN(c4ccc(OC[C@@H]5CO[C@@](Cn6cnnn6)(c6ccc(Cl)cc6Cl)O5)cn4)CC3)c(F)c2)c1=O` (stereo partly drawn) [Compound 15, 4-(4-(4-(5-(((2S,4R)-2-((1H-tetrazol-1-yl)methyl)-2-(2,4-dichlorophenyl)-1,3-dioxolan-4-yl)methoxy)pyridin-2-yl)piperazin-1-yl)-3-fluorophenyl)-2-(sec-butyl)-2,4-dihydro-3H-1,2,4-triazol-3-one] are 37 µM, 0.108 ± 0.0086 µM, “massive build-up of cholesterol” and 0.708 µg/mL (≈ 0.975 µM).
For the compound `CCC(C)n1ncn(-c2ccc(N3CCN(c4ccc(OC[C@@H]5CO[C@@](Cn6cncn6)(c6ccc(Cl)cc6Cl)O5)cn4)CC3)cc2)c1=O` (stereo partly drawn) [Compound 101, 4-(4-(4-(5-(((2S,4R)-2-((1H-1,2,4-triazol-1-yl)methyl)-2-(2,4-dichlorophenyl)-1,3-dioxolan-4-yl)methoxy)pyridin-2-yl)piperazin-1-yl)phenyl)-2-(sec-butyl)-2,4-dihydro-3H-1,2,4-triazol-3-one], the IC50 is 3.4 µM on CYP3A4 and 0.38 ± 0.0508 µM in the series with HUVEC [2]. In addition, the solubility at 24 h in series [3] was 0.114 µg/mL (≈ 0.161 µM).
With `CCC(C)n1ncn(-c2ccc(N3CCN(c4ccc(OC[C@@H]5CO[C@@](Cn6cncn6)(c6ccc(Cl)cc6Cl)O5)cc4)CC3)c(F)c2)c1=O` (stereo partly drawn) [Compound 104, 4-(4-(4-(4-(((2S,4R)-2-((1H-1,2,4-triazol-1-yl)methyl)-2-(2,4-dichlorophenyl)-1,3-dioxolan-4-yl)methoxy)phenyl)piperazin-1-yl)-3-fluorophenyl)-2-(sec-butyl)-2,4-dihydro-3H-1,2,4-triazol-3-one], the IC50 with HUVEC [2] was 0.128 ± 0.0597 µM. Moreover, the solubility at 24 h in series [3] was 0.0291 µg/mL (≈ 0.0402 µM).
In the same order, the values of `CCC(C)n1ncn(-c2ccc(N3CCN(c4ccc(OC[C@@H]5CO[C@@](Cn6cncn6)(c6ccc(Cl)cc6Cl)O5)nc4)CC3)c(F)c2)c1=O` (stereo partly drawn) [Compound 105, 4-(4-(4-(6-(((2S,4R)-2-((1H-1,2,4-triazol-1-yl)methyl)-2-(2,4-dichlorophenyl)-1,3-dioxolan-4-yl)methoxy)pyridin-3-yl)piperazin-1-yl)-3-fluorophenyl)-2-(sec-butyl)-2,4-dihydro-3H-1,2,4-triazol-3-one] are 0.447 ± 0.0383 µM and 0.255 µg/mL (≈ 0.352 µM).
Taken in the same sequence, the figures for `CCC(C)n1ncn(-c2ccc(N3CCN(c4ccc(OC[C@@H]5CO[C@@](Cn6cncn6)(c6ccc(Cl)cc6Cl)O5)cn4)CC3)c(F)c2)c1=O` (stereo partly drawn) [Compound 106, 4-(4-(4-(5-(((2S,4R)-2-((1H-1,2,4-triazol-1-yl)methyl)-2-(2,4-dichlorophenyl)-1,3-dioxolan-4-yl)methoxy)pyridin-2-yl)piperazin-1-yl)-3-fluorophenyl)-2-(sec-butyl)-2,4-dihydro-3H-1,2,4-triazol-3-one] were 0.173 ± 0.0276 µM and 0.848 µg/mL (≈ 1.17 µM).
